Data published in PMC9150124, “Design of a Potent, Selective, and Brain-Penetrant Inhibitor of Wnt-Deactivating Enzyme Notum by Optimization of a Crystallographic Fragment Hit” (Journal of Medicinal Chemistry, 2022).
pIC50: −log10 of the molar value. In brackets after ≈: the same amount, converted by molar mass. Where two headings read alike, the source gives them in different places.

Key:
[1] = biological target: T1, HTR3A (Homo sapiens, UniProt P46098); assay: Safety47 HTR3A antagonist assay; assay type: cell-based
T1 construct: Eurofins (DiscoverX Safety47)
Experimental: Screening for off-target pharmacology across multiple drug target classes was performed in the DiscoverX Safety47 panel as the SAFETYscan E/IC50 ELECT service by Eurofins (San Diego CA, U.S.A.). Assay information and data are presented in the Supporting Information.
Safety pharmacology studies
Screening for off-target pharmacology across multiple drug target classes was performed in the DiscoverX Safety47™ panel as the SAFETYscan E/IC50 ELECT service by eurofins (San Diego CA, U.S.A.). The assays were performed utilizing the PathHunter enzyme fragment complementation (EFC) technology, FLIPR®-based cellular screening assays, KINOMEscan kinase binding assays, and a variety of enzymatic assays (78 assays).

[2] = Solubility in dose formulations (cosolvents); assay type: physicochemical
[3] = tested on: Caco-2 cells; assay: Permeability using Caco-2 cell monolayer; settings: 2.00 μM
[4] = biological target: kinase named in conditions (Homo sapiens, UniProt P80192); assay: SelectScreen kinase profiling, SSBK ZLyte SP Technology; assay type: biochemical; settings: MAP3K9 (MLK1), 10 μM
Experimental: (§1) Kinase selectivity screening was performed by Thermo Fisher Scientific (Paisley, U.K.) in their SelectScreen Biochemical Kinase Profiling Service. Assay information and data are presented in the Supporting Information.
(§2) Kinase selectivity screening was performed by ThermoFisher Scientific (Paisley, U.K.) in their SelectScreenTM
(§3) Biochemical Kinase Profiling service .

[5] = biological target: kinase named in conditions (Homo sapiens, UniProt Q8TDC3); assay: as above; assay type: biochemical; settings: BRSK1 (SAD1), 10 μM
Experimental: as §1, §2, §3

[6] = biological target: kinase named in conditions (Homo sapiens, UniProt Q8NE63); assay: as above; assay type: biochemical; settings: HIPK4, 10 μM
Experimental: as §1, §2, §3

[7] = biological target: kinase named in conditions (Homo sapiens, UniProt Q06418); assay: as above; assay type: biochemical; settings: TYRO3 (RSE), 10 μM
Experimental: as §1, §2, §3

[8] = biological target: kinase named in conditions (Homo sapiens, UniProt P45984); assay: as above; assay type: biochemical; settings: MAPK9 (JNK2), 10 μM
Experimental: as §1, §2, §3

[9] = biological target: kinase named in conditions (Homo sapiens, UniProt Q9UM73); assay: as above; assay type: biochemical; settings: ALK, 10 μM
Experimental: as §1, §2, §3

[10] = biological target: kinase named in conditions (Homo sapiens, UniProt P54764); assay: as above; assay type: biochemical; settings: EPHA4, 10 μM
Experimental: as §1, §2, §3

[11] = biological target: kinase named in conditions (Homo sapiens, UniProt P41743); assay: as above; assay type: biochemical; settings: PRKCI (PKC iota), 10 μM
Experimental: as §1, §2, §3

[12] = biological target: kinase named in conditions (Homo sapiens, UniProt Q9Y5S2); assay: as above; assay type: biochemical; settings: CDC42 BPB (MRCKB), 10 μM
Experimental: as §1, §2, §3

[13] = biological target: kinase named in conditions (Homo sapiens, UniProt P00533, L861Q); assay: as above; assay type: biochemical; settings: EGFR (ErbB1) L861Q, 10 μM
Experimental: as §1, §2, §3

[14] = biological target: kinase named in conditions (Homo sapiens, UniProt Q16644); assay: as above; assay type: biochemical; settings: MAPKAPK3, 10 μM
Experimental: as §1, §2, §3

[15] = biological target: kinase named in conditions (Homo sapiens, UniProt Q00537); assay: as above; assay type: biochemical; settings: CDK17/cyclin Y, 10 μM
Experimental: as §1, §2, §3

[16] = biological target: kinase named in conditions (Homo sapiens, UniProt Q9Y463); assay: as above; assay type: biochemical; settings: DYRK1B, 10 μM
Experimental: as §1, §2, §3

[17] = biological target: kinase named in conditions (Homo sapiens, UniProt P17612); assay: as above; assay type: biochemical; settings: PRKACA (PKA), 10 μM
Experimental: as §1, §2, §3

[18] = biological target: kinase named in conditions (Homo sapiens, UniProt P51817); assay: as above; assay type: biochemical; settings: PRKX, 10 μM
Experimental: as §1, §2, §3

[19] = biological target: kinase named in conditions (Homo sapiens, UniProt P53779); assay: as above; assay type: biochemical; settings: MAPK10 (JNK3), 10 μM
Experimental: as §1, §2, §3

[20] = biological target: kinase named in conditions (Homo sapiens, UniProt P22607, K650E); assay: as above; assay type: biochemical; settings: FGFR3 K650E, 10 μM
Experimental: as §1, §2, §3

[21] = biological target: kinase named in conditions (Homo sapiens, UniProt P42684); assay: as above; assay type: biochemical; settings: ABL2 (Arg), 10 μM
Experimental: as §1, §2, §3

[22] = biological target: kinase named in conditions (Homo sapiens, UniProt P54646); assay: as above; assay type: biochemical
Experimental: as §1, §2, §3

[23] = biological target: kinase named in conditions (Homo sapiens, UniProt P35916); assay: as above; assay type: biochemical; settings: FLT4 (VEGFR3), 10 μM
Experimental: as §1, §2, §3

[24] = biological target: kinase named in conditions (Homo sapiens, UniProt Q9BZL6); assay: as above; assay type: biochemical; settings: PRKD2 (PKD2), 10 μM
Experimental: as §1, §2, §3

[25] = biological target: kinase named in conditions (Homo sapiens, UniProt P25098); assay: as above; assay type: biochemical; settings: ADRBK1 (GRK2), 10 μM
Experimental: as §1, §2, §3

[26] = biological target: kinase named in conditions (Homo sapiens, UniProt P07949, V804L); assay: as above; assay type: biochemical; settings: RET V804L, 10 μM
Experimental: as §1, §2, §3

[27] = biological target: kinase named in conditions (Homo sapiens, UniProt Q9Y4K4); assay: as above; assay type: biochemical; settings: MAP4K5 (KHS1), 10 μM
Experimental: as §1, §2, §3

[28] = biological target: kinase named in conditions (Homo sapiens, UniProt P07948); assay: as above; assay type: biochemical; settings: LYN A, 10 μM
Experimental: as §1, §2, §3

[29] = biological target: kinase named in conditions (Homo sapiens, UniProt Q13627); assay: as above; assay type: biochemical; settings: DYRK1A, 10 μM
Experimental: as §1, §2, §3

[30] = biological target: kinase named in conditions (Homo sapiens, UniProt Q9H422); assay: as above; assay type: biochemical; settings: HIPK3 (YAK1), 10 μM
Experimental: as §1, §2, §3

Chain of kinase named in conditions (Homo sapiens, UniProt P54646) (P54646 whole entry): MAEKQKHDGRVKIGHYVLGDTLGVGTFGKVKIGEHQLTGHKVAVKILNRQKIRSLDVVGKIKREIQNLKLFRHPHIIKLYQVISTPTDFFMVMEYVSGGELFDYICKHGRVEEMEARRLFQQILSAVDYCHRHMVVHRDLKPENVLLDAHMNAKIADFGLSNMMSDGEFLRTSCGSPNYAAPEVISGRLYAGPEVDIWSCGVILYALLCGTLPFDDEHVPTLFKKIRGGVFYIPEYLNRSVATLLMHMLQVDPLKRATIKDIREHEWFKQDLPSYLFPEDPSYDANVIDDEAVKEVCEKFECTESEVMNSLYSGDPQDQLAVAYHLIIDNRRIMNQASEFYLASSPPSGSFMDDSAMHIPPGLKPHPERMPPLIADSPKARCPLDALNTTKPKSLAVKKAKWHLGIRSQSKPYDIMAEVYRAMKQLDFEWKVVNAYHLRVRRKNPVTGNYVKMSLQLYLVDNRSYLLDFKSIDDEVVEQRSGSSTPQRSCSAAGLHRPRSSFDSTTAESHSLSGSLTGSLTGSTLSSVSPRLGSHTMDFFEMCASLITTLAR
Chain of kinase named in conditions (Homo sapiens, UniProt Q9Y4K4) (Q9Y4K4 whole entry): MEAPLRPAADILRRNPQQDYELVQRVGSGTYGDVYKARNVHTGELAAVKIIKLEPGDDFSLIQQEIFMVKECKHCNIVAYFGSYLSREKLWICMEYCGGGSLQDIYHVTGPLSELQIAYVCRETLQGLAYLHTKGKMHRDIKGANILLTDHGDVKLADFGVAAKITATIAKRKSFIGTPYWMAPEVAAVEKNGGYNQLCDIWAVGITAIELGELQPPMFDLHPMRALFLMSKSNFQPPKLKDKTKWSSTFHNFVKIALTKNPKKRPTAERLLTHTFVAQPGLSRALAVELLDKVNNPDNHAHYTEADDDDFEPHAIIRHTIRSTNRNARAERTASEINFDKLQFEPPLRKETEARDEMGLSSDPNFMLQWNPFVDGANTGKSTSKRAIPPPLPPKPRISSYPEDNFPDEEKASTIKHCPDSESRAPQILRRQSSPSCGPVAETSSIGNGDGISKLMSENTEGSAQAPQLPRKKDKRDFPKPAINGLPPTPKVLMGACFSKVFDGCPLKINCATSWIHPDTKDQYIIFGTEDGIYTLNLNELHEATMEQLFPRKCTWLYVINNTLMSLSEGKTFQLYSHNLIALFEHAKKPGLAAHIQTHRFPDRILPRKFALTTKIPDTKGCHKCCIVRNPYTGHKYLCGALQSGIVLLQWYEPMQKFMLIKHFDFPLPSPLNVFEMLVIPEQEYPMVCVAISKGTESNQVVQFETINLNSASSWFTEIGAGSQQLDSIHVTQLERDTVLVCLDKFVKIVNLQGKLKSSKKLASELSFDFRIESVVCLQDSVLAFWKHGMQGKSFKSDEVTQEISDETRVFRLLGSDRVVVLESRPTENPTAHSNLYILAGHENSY
Chain of kinase named in conditions (Homo sapiens, UniProt P45984) (P45984 whole entry): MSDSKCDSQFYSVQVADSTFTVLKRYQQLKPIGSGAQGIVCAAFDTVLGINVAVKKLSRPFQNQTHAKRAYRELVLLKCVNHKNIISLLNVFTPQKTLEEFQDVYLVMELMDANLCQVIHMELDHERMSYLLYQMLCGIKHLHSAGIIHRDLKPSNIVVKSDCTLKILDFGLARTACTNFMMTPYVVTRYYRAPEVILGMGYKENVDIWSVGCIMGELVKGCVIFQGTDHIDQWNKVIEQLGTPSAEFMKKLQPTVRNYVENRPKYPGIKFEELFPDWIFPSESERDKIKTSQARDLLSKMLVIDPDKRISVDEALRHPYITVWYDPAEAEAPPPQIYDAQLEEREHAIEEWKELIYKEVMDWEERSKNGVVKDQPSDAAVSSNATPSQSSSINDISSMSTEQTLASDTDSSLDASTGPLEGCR
Chain of kinase named in conditions (Homo sapiens, UniProt Q9Y463) (Q9Y463 whole entry): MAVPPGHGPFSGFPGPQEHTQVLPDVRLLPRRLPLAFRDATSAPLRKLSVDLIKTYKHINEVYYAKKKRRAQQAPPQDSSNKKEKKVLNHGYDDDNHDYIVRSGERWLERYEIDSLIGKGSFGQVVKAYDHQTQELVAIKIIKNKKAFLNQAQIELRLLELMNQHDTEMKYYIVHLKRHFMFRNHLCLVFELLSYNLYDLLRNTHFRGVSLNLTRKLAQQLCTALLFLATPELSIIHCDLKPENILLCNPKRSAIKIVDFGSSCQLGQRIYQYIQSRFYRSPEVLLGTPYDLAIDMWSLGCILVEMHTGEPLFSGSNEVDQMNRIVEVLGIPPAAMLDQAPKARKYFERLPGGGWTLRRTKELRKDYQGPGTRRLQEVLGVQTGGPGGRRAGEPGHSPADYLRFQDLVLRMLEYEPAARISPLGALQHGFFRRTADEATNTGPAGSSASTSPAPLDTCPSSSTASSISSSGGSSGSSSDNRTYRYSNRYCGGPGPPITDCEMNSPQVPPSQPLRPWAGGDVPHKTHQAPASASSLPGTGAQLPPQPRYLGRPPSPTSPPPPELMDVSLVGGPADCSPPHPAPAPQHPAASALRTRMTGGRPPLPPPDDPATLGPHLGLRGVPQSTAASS
T1 sequence (P46098 24-478): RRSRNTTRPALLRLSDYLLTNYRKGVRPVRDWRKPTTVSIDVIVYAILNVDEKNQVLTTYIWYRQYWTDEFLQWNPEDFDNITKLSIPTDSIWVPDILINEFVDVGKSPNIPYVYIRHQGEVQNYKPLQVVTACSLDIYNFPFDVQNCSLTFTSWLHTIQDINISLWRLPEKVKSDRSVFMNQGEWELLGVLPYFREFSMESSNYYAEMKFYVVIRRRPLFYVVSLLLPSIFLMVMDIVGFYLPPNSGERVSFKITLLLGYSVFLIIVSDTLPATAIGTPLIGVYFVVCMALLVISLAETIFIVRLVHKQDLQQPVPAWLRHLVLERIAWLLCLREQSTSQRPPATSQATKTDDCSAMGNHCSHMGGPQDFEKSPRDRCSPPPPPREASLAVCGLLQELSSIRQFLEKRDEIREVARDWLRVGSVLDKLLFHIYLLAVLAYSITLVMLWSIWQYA
Chain of kinase named in conditions (Homo sapiens, UniProt Q8TDC3) (Q8TDC3 whole entry): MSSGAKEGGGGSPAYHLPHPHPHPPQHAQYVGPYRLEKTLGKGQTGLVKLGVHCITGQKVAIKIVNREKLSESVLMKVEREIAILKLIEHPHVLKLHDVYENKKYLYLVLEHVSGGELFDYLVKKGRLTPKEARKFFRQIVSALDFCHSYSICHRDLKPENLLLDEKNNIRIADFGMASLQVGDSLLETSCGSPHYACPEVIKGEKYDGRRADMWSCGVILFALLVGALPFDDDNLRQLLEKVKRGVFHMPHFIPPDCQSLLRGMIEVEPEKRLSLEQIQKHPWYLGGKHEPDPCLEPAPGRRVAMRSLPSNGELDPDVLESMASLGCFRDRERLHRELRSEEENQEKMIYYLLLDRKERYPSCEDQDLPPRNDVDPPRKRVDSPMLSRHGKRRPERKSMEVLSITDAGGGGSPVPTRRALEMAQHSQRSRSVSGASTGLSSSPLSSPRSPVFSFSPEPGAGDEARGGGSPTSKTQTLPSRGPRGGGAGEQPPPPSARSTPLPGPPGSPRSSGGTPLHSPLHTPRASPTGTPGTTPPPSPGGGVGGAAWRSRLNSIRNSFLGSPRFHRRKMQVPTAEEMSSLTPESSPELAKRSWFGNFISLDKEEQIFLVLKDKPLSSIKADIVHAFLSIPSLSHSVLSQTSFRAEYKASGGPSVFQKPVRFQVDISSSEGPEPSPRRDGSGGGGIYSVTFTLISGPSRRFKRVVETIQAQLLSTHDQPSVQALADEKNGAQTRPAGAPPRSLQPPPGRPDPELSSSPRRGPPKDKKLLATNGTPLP
Chain of kinase named in conditions (Homo sapiens, UniProt P51817) (P51817 whole entry): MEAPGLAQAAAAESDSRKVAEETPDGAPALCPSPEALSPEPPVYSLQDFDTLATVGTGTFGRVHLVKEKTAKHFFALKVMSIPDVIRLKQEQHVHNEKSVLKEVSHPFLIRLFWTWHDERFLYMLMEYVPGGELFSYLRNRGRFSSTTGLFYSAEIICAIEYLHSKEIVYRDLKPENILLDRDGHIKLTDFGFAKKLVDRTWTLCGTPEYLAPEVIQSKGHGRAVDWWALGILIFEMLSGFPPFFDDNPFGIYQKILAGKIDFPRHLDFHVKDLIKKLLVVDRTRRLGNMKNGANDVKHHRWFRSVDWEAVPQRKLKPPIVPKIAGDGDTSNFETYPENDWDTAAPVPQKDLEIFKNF
Chain of kinase named in conditions (Homo sapiens, UniProt P22607, K650E) (P22607 23-806 K650E): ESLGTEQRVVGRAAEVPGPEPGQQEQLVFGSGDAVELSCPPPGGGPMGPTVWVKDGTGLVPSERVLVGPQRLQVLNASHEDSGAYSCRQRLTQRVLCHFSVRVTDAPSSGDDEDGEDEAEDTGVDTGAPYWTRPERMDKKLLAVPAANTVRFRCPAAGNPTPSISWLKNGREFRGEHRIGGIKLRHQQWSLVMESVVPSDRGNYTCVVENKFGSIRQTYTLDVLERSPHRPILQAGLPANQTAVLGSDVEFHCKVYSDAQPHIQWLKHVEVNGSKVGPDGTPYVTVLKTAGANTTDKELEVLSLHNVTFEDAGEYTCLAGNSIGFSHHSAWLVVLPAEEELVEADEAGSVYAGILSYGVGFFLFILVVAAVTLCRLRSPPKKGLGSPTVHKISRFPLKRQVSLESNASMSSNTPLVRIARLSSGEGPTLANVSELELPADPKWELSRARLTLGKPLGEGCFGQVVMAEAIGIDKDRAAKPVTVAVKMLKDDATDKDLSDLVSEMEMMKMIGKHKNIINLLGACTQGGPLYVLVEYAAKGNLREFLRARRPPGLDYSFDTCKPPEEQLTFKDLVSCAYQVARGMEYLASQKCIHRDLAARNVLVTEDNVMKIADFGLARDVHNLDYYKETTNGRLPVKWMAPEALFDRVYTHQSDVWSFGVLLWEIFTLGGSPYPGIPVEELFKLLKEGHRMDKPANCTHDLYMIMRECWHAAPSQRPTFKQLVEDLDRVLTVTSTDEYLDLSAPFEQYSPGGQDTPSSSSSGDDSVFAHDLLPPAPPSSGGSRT

FC(F)(F)c1c(Cl)ccc(-n2ccnn2)c1Cl [8l, 1-(2,4-Dichloro-3-(trifluoromethyl)phenyl)-1H-1,2,3-triazole]
pIC50 [1]: 5.35 | solubility ([2]; 2% DMSO in PBS (with 10% solutol v/v), read-out: Solubility): 3000 µg/mL (≈ 10.6 mM) | Mean Concentration of dose formulation ([2]; 20% w/v HPßCD in Water): 1000 µg/mL | Mean Concentration of dose formulation ([2]; DMSO (2%v/v) + 10% v/v HPßCD in WFI (98% v/v/)): 1020 µg/mL | Mean Concentration of dose formulation ([2]; DMSO (2%v/v) + 10% v/v Solutol in PBS (98% v/v)): 960 µg/mL | solubility ([2]; dose formulations with cosolvents, read-out: aqueous solubility with cosolvents): 1000 µg/mL (≈ 3.55 mM) | Caco-2 AB Papp ([3]; apical to basal): 49 10-6 cm/sec | Caco-2 BA Papp ([3]; basal to apical): 30 10-6 cm/sec | inhibition at 10 µM [4]: -4% | inhibition at 10 µM [5]: 0% | inhibition at 10 µM [6]: -2% | inhibition at 10 µM [7]: 5% | inhibition at 10 µM [8]: -17% | inhibition at 10 µM [9]: 5% | inhibition at 10 µM [10]: 1% | inhibition at 10 µM [11]: 4% | inhibition at 10 µM [12]: -1% | inhibition at 10 µM [13]: 0% | inhibition at 10 µM [14]: 1% | inhibition at 10 µM [15]: 1% | inhibition at 10 µM [16]: 16% | inhibition at 10 µM [17]: 0% | inhibition at 10 µM [18]: 6% | inhibition at 10 µM [19]: -1% | inhibition at 10 µM [20]: -5% | inhibition at 10 µM [21]: 10% | inhibition at 10 µM ([22]; AMPK (A2/B1/G2), 10 μM): -2% | inhibition at 10 µM ([22]; AMPK (A2/B1/G3), 10 μM): 2% | inhibition at 10 µM ([22]; AMPK (A2/B2/G3), 10 μM): 3% | inhibition at 10 µM ([22]; AMPK A2/B1/G1, 10 μM): 14% | inhibition at 10 µM [23]: 0% | inhibition at 10 µM [24]: 0% | inhibition at 10 µM [25]: 4% | inhibition at 10 µM [26]: 8% | inhibition at 10 µM [27]: -10% | inhibition at 10 µM [28]: -1% | inhibition at 10 µM [29]: 0% | inhibition at 10 µM [30]: 3%
